From patent US20250318524A1, “ANTIMICROBIAL COATING COMPOSITION AND METHOD OF USE THEREOF” (priority 2024, published 2025)

Test: Selection of antimicrobial agents: solubility in aqueous solution, stability, compatibility with the coating composition

Molecule | solubility in water
polyhexamethylene biguanide [PHMB] | good water solubility
N=C(NCCCCCCNC(=N)NC(=N)Nc1ccc(Cl)cc1)NC(=N)Nc1ccc(Cl)cc1.O=C(O)[C@H](O)[C@@H](O)[C@H](O)[C@H](O)CO.O=C(O)[C@H](O)[C@@H](O)[C@H](O)[C@H](O)CO [Chlorhexidine gluconate, chlorhexidine gluconate] | good water solubility
